Legend:
Type in all cases: binding
[1] = biological target: T1, SW480 colon carcinoma cells lysate proteins (Homo sapiens, UniProt P55209); conditions: PreyGene NAP1L1
T1 sequence (P55209 1-391): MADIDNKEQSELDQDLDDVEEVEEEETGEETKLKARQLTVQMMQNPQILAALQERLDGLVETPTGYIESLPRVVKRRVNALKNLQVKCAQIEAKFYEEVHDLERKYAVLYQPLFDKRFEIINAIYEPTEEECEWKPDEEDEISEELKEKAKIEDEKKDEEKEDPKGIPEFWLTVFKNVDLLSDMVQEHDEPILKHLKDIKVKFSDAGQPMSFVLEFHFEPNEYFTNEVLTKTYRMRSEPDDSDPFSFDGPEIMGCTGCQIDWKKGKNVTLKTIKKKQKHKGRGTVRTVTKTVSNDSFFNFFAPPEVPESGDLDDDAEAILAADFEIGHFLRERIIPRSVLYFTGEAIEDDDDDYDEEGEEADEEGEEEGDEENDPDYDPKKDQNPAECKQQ

[2] = biological target: T2, SW480 colon carcinoma cells lysate proteins (Homo sapiens, UniProt P30101); conditions: PreyGene PDIA3
T2 sequence (P30101 25-505): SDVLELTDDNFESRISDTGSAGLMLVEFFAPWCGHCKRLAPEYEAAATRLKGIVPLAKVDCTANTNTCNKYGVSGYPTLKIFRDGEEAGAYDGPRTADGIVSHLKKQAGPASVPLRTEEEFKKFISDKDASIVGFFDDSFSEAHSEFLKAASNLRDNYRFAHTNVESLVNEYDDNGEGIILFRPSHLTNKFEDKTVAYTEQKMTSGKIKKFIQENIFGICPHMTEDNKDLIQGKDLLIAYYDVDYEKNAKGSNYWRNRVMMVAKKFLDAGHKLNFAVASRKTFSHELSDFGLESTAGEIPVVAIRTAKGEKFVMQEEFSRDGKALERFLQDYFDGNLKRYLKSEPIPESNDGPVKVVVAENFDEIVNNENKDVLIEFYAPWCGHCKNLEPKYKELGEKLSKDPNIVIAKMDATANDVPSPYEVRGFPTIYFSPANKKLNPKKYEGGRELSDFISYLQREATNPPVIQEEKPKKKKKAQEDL

[3] = biological target: T3, SW480 colon carcinoma cells lysate proteins (Homo sapiens, UniProt P40925); conditions: PreyGene MDH1
T3 sequence (P40925 1-334): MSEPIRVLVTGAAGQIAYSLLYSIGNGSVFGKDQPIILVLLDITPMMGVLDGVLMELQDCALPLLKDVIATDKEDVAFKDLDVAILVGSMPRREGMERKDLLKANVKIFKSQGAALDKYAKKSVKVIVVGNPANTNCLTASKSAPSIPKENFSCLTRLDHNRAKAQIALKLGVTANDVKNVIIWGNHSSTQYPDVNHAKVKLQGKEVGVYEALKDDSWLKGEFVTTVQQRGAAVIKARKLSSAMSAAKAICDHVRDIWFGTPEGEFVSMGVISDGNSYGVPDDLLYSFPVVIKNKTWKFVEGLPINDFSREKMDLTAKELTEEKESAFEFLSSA

[4] = biological target: SW480 colon carcinoma cells lysate proteins (Homo sapiens, UniProt Q09666); conditions: PreyGene AHNAK; SW480 cells
[5] = biological target: SW480 colon carcinoma cells lysate proteins (Homo sapiens, UniProt P62942); conditions: PreyGene FKBP1A; SW480 cells
SW480 colon carcinoma cells lysate proteins (Homo sapiens, UniProt P62942), sequence (P62942 whole entry): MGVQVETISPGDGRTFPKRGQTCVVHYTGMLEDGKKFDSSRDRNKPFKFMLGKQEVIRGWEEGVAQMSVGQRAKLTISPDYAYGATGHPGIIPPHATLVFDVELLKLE

[6] = biological target: SW480 colon carcinoma cells lysate proteins (Homo sapiens, UniProt Q13576); conditions: PreyGene IQGAP2
SW480 colon carcinoma cells lysate proteins (Homo sapiens, UniProt Q13576), sequence (Q13576 whole entry): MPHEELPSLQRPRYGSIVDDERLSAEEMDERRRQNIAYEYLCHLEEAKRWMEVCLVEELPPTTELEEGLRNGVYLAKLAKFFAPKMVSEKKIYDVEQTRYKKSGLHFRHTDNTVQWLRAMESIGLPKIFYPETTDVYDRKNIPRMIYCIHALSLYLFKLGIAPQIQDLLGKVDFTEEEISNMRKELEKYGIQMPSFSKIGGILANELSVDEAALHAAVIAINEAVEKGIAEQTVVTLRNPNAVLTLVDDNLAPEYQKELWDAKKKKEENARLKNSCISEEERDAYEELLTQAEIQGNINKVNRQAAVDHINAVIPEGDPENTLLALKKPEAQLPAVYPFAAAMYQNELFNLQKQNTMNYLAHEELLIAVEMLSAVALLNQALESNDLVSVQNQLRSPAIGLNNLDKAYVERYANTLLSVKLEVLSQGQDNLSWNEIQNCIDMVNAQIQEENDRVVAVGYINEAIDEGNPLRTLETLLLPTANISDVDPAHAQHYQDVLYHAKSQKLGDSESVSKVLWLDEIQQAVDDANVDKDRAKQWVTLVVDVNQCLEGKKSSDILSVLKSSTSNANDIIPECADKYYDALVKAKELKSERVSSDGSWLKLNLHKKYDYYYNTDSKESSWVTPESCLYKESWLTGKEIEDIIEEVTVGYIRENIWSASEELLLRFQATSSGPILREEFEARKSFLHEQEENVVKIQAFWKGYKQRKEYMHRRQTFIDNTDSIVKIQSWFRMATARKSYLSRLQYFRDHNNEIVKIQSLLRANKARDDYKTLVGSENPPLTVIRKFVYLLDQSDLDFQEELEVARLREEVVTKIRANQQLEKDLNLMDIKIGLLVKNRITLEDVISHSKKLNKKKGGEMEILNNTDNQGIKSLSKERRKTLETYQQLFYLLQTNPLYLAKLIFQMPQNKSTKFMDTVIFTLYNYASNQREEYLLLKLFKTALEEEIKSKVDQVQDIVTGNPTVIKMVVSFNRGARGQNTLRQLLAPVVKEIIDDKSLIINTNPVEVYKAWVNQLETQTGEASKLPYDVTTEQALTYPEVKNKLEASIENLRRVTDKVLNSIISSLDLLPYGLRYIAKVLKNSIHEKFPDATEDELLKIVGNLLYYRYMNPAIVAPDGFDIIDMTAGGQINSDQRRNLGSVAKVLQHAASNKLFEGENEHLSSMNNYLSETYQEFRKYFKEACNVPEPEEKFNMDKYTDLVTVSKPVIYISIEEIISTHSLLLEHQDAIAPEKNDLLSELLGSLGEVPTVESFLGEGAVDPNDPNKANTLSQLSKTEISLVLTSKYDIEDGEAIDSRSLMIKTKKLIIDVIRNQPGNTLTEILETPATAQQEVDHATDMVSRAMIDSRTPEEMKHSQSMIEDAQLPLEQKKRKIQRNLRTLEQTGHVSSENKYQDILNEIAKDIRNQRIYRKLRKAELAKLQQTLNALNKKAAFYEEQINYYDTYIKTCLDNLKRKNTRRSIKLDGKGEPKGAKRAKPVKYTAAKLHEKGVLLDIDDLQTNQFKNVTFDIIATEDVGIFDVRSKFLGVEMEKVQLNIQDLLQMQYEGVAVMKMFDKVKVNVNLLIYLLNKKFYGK

[7] = biological target: T4, SW480 colon carcinoma cells lysate proteins (Homo sapiens, UniProt P04075); conditions: PreyGene ALDOA
T4 sequence (P04075 1-364): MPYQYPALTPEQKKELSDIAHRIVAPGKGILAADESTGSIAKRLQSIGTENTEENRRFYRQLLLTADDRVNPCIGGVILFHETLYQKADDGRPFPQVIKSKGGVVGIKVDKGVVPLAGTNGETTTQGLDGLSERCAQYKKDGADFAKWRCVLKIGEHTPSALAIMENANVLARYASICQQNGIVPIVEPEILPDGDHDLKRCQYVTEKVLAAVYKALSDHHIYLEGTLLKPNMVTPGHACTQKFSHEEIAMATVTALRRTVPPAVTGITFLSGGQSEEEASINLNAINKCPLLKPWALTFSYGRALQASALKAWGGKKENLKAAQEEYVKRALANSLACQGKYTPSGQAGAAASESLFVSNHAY

[8] = biological target: SW480 colon carcinoma cells lysate proteins (Homo sapiens, UniProt P00441); conditions: PreyGene SOD1
SW480 colon carcinoma cells lysate proteins (Homo sapiens, UniProt P00441), sequence (P00441 whole entry): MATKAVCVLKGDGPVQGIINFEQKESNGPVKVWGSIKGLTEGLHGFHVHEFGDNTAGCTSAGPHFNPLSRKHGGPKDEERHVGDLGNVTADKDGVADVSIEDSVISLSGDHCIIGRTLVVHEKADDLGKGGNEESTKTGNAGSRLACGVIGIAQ

[9] = biological target: SW480 colon carcinoma cells lysate proteins (Homo sapiens, UniProt Q14240); conditions: PreyGene EIF4A2; SW480 cells
SW480 colon carcinoma cells lysate proteins (Homo sapiens, UniProt Q14240), sequence (Q14240 whole entry): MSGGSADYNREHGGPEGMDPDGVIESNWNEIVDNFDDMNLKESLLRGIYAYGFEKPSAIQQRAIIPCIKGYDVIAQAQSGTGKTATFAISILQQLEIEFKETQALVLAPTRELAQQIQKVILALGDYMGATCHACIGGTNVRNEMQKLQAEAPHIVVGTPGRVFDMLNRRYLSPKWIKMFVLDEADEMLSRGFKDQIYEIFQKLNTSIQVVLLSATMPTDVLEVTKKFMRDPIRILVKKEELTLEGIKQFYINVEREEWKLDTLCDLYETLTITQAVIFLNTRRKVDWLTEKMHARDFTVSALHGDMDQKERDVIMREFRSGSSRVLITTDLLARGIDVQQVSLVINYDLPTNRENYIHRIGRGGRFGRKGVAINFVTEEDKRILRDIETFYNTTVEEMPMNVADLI

C[C@H](Oc1cc(-c2cnn(C3CCNCC3)c2)cnc1N)c1c(Cl)ccc(F)c1Cl [(5)-crizotinib]
AvgP [1]: 0.2244 | SC.Exp. 1-1 [1]: 1 | SC.Exp. 1-2 [1]: 2 | SC.Exp. 2-1 [1]: 0 | SC.Exp. 2-2 [1]: 0 | Sum (SC.Exp.) [1]: 3 | AvgP [2]: 0.4952 | SC.Exp. 1-1 [2]: 8 | SC.Exp. 1-2 [2]: 7 | SC.Exp. 2-1 [2]: 0 | SC.Exp. 2-2 [2]: 0 | Sum (SC.Exp.) [2]: 15 | AvgP [3]: 0.4615 | SC.Exp. 1-1 [3]: 5 | SC.Exp. 1-2 [3]: 6 | SC.Exp. 2-1 [3]: 0 | SC.Exp. 2-2 [3]: 0 | Sum (SC.Exp.) [3]: 11 | AvgP [4]: 0 | SC.Exp. 1-1 [4]: 5 | SC.Exp. 1-2 [4]: 6 | SC.Exp. 2-1 [4]: 6 | SC.Exp. 2-2 [4]: 6 | SC.Exp. Sum [4]: 23 | AvgP [5]: 0 | SC.Exp. 1-1 [5]: 1 | SC.Exp. 1-2 [5]: 1 | SC.Exp. 2-1 [5]: 1 | SC.Exp. 2-2 [5]: 0 | SC.Exp. Sum [5]: 3 | AvgP [6]: 0.4584 | SC.Exp. 1-1 [6]: 9 | SC.Exp. 1-2 [6]: 9 | SC.Exp. 2-1 [6]: 0 | SC.Exp. 2-2 [6]: 0 | Sum (SC.Exp.) [6]: 18 | AvgP [7]: 0.2283 | SC.Exp. 1-1 [7]: 12 | SC.Exp. 1-2 [7]: 12 | SC.Exp. 2-1 [7]: 2 | SC.Exp. 2-2 [7]: 0 | Sum (SC.Exp.) [7]: 26 | AvgP [8]: 0.3882 | SC.Exp. 1-1 [8]: 3 | SC.Exp. 1-2 [8]: 3 | SC.Exp. 2-1 [8]: 0 | SC.Exp. 2-2 [8]: 0 | Sum (SC.Exp.) [8]: 6 | AvgP [9]: 0 | SC.Exp. 1-1 [9]: 1 | SC.Exp. 1-2 [9]: 1 | SC.Exp. 2-1 [9]: 0 | SC.Exp. 2-2 [9]: 1 | SC.Exp. Sum [9]: 3

From patent publication US9446039B2, “Aminoheteroaryl compounds as MTH1 inhibitors” (CEMM—FORSCHUNGSZENTRUM FÜR MOLEKULARE MEDIZIN GMBH, priority 2012, dated 2016)
